Experimental data taken from ChEMBL document CHEMBL1201862, “PubChem BioAssay data set” (2004).
The source made the active and inactive calls.

Legend:
[1] = antiviral protection against BTV-induced cell death – arbovirus, BSR cells, confirmation (AID 1250); type: functional;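 note: protection from viral cytopathic effect measured as cell viability by ATP luminescence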
Aminopeptidase N = biological target: T1, Aminopeptidase N (Plasmodium falciparum FcB1/Columbia, UniProt O96935); assay: malaria alanyl aminopeptidase activity blockers – biochemical, fluorogenic H-Leu-NHMec substrate, 1536-well (AID 1445); set-up: species or system Plasmodium falciparum 3D7, 3D7
T1 sequence (O96935 whole entry): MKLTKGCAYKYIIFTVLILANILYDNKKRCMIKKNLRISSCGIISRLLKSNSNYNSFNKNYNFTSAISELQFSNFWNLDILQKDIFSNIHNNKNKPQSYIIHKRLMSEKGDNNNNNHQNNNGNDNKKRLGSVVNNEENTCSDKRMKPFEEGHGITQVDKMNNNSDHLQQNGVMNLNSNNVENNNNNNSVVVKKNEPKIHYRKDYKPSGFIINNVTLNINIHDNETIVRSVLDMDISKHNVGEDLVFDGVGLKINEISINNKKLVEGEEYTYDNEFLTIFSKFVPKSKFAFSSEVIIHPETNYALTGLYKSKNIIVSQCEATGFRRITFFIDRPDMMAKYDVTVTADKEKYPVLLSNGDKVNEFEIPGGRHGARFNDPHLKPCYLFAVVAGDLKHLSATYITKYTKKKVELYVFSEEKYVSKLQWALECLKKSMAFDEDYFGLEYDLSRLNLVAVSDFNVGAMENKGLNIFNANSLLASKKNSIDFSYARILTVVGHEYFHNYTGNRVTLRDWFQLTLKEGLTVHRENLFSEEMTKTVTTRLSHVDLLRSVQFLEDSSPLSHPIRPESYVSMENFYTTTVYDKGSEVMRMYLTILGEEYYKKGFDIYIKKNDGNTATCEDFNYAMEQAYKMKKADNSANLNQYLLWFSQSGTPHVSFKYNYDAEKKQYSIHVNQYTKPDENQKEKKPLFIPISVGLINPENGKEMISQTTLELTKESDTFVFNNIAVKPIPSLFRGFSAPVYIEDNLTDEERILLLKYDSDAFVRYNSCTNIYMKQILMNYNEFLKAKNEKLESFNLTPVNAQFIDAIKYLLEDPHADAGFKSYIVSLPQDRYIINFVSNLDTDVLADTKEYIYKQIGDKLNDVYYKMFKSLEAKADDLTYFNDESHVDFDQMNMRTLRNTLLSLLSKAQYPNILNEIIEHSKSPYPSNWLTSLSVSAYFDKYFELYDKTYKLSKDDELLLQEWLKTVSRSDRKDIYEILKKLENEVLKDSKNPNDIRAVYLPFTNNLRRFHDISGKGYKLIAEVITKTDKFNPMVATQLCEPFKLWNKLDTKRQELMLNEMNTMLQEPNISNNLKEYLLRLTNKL

Procathepsin L = Procathepsin L (Homo sapiens, UniProt P07711); assay: CTSL1 protease inhibition – biochemical, QFRET, 1536-well, counter-screen for M1/M17 aminopeptidase inhibitor project, dose response (AID 2214)
Aspartyl aminopeptidase = biological target: T2, Aspartyl aminopeptidase (Plasmodium falciparum 3D7, UniProt Q8I2J3); assay: Counterscreen for inhibitors of M1 and M17 aminopeptidases: QFRET-based biochemical high throughput dose response assay for inhibitors of the Plasmodium falciparum M18 Aspartyl Aminopeptidase (PFM18AAP). [Related PubChem assays: 1619 (Screening assay (M17LAP inhibitors).), 1445 (Screening assay (M1AAP inhibitors).)]
T2 sequence (Q8I2J3 whole entry): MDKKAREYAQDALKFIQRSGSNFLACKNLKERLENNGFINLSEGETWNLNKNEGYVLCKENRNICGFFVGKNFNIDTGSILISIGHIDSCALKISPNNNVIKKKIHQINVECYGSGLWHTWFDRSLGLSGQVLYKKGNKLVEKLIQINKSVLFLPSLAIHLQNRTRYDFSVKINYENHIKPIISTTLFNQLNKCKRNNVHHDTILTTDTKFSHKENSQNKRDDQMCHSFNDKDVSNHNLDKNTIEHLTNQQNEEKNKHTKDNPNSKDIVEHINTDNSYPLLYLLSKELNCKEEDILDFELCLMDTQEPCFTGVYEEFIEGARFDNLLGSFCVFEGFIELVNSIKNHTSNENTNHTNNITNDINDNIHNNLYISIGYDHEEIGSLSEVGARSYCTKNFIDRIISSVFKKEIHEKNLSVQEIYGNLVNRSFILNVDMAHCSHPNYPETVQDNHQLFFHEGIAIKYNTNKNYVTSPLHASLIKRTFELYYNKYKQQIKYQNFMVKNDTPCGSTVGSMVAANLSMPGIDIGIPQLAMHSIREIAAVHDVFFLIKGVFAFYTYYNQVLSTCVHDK

[2] = biological target: T3, Neuropeptide Y receptor type 2 (Homo sapiens, UniProt P49146); type: functional, cell-based;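 note: HEK293 cells expressing the receptor and a CNG channel; stimulus was NPY near EC95 followed by isoproterenol to raise cAMP; antagonist potency measured as restoring cAMP signal that NPY suppresses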
T3 sequence (P49146 whole entry): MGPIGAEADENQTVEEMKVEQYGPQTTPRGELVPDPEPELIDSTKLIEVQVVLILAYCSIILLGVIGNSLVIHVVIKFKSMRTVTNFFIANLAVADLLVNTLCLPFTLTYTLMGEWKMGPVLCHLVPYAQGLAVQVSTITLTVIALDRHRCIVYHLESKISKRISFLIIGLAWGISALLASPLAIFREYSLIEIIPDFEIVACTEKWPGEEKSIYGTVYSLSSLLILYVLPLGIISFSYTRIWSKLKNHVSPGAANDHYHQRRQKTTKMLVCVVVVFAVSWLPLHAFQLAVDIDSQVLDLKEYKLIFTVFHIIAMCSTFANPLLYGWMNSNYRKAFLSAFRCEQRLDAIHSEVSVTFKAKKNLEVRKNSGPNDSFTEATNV

[3] = Luminescence Cell-Based Dose Confirmation HTS to Identify Inhibitors of Platelet Dense Granule Release. [Related pubchem assays: 1663 (Primary HTS), 1678 (Summary of Project)]; type: functional
[4] = biological target: Luciferin 4-monooxygenase (Photinus pyralis, UniProt P08659); assay: inhibition of purified Photinus pyralis luciferase – biochemical, luminescence, dose response (AID 1891)
[5] = biological target: T4, Neuropeptide Y receptor type 1 (Homo sapiens, UniProt P25929); type: functional;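 note: HEK293 cells with a CNG channel challenged with NPY then isoproterenol; potency as antagonist that reverses NPY suppression of cAMP signal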
T4 sequence (P25929 whole entry): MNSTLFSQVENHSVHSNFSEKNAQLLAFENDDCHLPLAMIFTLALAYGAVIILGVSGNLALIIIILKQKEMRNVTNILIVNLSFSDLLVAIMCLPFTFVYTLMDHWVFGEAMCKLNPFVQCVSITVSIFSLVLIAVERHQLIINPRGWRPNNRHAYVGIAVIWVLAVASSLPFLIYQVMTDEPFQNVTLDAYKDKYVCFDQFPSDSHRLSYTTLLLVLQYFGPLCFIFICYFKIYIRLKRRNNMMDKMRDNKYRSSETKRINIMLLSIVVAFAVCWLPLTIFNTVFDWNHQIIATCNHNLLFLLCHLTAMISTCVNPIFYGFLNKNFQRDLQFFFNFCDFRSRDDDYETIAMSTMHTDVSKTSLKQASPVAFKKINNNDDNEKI

H9c2 = assay: cells; type: functional, cell-based; settings: Rattus norvegicus, H9c2, Myocardium;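 note: confirmatory concentration-response retest of ultra-high-throughput screening hits for modulation of myocardial damage; cell death induced by hydrogen peroxide oxidative stress; compound pretreatment for 60 min then peroxide exposure for 2 h; potency is for protecting the cells against peroxide damage rather than for killing them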
[6] = biological target: T5, Apoptotic protease-activating factor 1 (Homo sapiens, UniProt O14727); type: functional
T5 sequence (O14727 whole entry): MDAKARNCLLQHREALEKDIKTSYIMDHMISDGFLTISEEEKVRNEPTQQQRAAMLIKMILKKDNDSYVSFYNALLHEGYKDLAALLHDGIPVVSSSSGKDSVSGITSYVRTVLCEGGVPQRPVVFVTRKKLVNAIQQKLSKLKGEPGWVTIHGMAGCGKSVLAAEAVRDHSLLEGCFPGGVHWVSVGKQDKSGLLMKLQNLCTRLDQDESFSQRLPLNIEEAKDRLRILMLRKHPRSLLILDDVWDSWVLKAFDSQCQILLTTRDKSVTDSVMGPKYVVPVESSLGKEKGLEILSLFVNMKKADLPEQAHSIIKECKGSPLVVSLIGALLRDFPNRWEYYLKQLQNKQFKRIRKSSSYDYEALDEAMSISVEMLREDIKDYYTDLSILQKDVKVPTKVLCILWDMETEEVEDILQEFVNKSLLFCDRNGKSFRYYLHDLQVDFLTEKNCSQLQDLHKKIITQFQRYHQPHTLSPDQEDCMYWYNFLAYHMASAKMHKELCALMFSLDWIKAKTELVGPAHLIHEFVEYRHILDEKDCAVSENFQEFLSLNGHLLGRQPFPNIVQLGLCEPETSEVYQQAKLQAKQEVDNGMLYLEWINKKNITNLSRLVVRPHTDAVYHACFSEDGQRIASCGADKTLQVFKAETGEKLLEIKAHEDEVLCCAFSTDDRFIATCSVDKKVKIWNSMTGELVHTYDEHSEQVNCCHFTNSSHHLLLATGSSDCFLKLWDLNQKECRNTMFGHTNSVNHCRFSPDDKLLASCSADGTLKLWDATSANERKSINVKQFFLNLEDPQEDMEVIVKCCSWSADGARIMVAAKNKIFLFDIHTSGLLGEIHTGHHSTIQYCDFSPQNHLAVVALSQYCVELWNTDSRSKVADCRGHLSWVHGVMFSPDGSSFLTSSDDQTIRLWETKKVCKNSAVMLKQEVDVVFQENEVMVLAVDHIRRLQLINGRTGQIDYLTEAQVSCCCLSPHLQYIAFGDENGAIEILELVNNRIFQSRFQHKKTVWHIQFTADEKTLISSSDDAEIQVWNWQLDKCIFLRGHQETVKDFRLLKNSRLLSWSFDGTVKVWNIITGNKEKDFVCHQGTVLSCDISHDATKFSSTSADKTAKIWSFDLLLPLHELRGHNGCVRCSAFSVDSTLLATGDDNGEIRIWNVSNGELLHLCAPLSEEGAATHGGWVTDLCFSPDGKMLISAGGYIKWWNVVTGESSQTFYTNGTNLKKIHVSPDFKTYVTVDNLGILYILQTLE

[7] = tested on: Streptococcus sp. 'group A'; assay: Streptococcus pyogenes SK(-)GAS viability under kanamycin – luminescence, BacTiterGlo, confirmation, counter-screen for streptokinase expression inhibitor project, dose response (AID 1900); type: functional, organism-based
Leucine aminopeptidase = biological target: T6, Leucine aminopeptidase (Plasmodium falciparum 3D7, UniProt Q8IL11); assay: P. falciparum M17LAP inhibitors, primary screen, biochemical, fluorogenic H-Leu-NHMec substrate, 1536-well (AID 1619); type: functional
T6 sequence (Q8IL11 whole entry): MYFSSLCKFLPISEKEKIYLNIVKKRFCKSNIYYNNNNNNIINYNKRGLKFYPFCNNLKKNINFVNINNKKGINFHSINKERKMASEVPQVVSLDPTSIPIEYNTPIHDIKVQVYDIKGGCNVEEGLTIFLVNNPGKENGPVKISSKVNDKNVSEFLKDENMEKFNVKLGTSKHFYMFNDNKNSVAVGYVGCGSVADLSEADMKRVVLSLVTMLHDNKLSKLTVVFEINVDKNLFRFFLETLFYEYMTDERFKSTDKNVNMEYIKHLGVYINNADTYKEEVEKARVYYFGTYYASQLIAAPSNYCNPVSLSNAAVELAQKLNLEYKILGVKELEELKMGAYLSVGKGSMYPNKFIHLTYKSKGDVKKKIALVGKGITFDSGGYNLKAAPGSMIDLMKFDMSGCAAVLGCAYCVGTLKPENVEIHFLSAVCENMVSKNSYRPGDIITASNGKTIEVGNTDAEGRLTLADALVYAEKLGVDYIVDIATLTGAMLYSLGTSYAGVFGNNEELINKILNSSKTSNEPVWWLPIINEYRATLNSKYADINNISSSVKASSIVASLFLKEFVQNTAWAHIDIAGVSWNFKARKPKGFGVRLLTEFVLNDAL

Streptococcus = assay: GAS UMAA2166 growth inhibition – luminescence, BacTiterGlo, counter-screen for streptokinase expression inhibitor project, dose response (AID 1915); type: functional, organism-based;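 note: potency for reduction of bacterial viability or growth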
Streptokinase A = biological target: T7, Streptokinase A (Streptococcus pyogenes serotype M1, UniProt P10520); assay: viability-normalized secreted streptokinase activity reduction – plasminogen activation absorbance, OD405, dose response (AID 1914); type: functional, Streptococcus pyogenes M1 GAS;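 note: secreted streptokinase activity via plasminogen activation per viability signal from cell pellet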
T7 sequence (P10520 whole entry): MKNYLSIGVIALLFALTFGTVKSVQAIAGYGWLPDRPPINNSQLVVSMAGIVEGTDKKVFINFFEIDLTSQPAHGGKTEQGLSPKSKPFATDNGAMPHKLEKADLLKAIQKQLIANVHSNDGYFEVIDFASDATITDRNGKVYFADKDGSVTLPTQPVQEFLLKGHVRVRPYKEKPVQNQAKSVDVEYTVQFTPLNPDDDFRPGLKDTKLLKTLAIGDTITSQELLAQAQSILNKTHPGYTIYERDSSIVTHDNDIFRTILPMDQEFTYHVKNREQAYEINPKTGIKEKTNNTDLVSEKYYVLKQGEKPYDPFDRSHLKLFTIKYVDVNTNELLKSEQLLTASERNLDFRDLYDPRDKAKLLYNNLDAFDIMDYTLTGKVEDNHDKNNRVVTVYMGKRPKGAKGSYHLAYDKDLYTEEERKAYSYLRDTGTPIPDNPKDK

[8] = HPDE-C7 pancreatic duct cell viability loss – fluorescence, HTS (AID 430); type: functional, cell-based; settings: Homo sapiens
[9] = viability loss of HPDE-C7K cells – cell-based, fluorescence, HTS, primary screen (AID 431); type: functional; settings: Homo sapiens

Sequence of Procathepsin L (P07711 whole entry): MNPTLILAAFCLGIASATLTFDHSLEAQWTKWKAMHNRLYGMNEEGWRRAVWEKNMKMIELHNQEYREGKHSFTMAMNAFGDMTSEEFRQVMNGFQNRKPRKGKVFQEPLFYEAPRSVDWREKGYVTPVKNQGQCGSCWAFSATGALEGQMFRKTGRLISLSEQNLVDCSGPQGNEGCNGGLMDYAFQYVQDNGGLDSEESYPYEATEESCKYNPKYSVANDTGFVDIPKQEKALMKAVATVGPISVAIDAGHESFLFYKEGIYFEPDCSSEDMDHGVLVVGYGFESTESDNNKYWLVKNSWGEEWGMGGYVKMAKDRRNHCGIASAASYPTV
Sequence of Luciferin 4-monooxygenase (P08659 whole entry): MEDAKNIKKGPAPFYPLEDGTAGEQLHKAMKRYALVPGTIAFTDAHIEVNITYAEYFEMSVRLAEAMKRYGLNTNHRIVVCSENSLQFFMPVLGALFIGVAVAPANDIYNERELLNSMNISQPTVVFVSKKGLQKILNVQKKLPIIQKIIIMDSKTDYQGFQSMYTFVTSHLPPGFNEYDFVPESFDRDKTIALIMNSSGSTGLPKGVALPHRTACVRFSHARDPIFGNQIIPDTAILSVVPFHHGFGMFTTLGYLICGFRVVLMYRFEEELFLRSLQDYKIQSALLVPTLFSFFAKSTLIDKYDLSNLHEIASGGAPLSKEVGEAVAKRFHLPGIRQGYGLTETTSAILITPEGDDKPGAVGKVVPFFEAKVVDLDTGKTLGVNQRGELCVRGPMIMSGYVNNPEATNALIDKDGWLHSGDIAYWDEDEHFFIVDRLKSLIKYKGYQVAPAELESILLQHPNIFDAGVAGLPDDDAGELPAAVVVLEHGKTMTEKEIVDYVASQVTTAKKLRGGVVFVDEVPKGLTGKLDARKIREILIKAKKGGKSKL

SMILES: COc1ccc(-c2cc(-c3ccc(Br)cc3)nc3ncnn23)cc1OC
- IC50 [1]: 52.8 µM (active)

SMILES: CC(C)(C)c1nc2ccccc2c(=O)n1N1C(=O)c2ccccc2C1=O
- IC50 (Aminopeptidase N): 16.1 µM (active)
- IC50 (Procathepsin L): > 59.6 µM (not active)
- IC50 (Aspartyl aminopeptidase): > 73.5 µM (not active)

SMILES: Cc1ccc(-c2nn3c(C)nnc3c3ccccc23)cc1S(=O)(=O)NC(C)c1ccccc1 (centres undefined)
- IC50 [2]: 10.4 µM (not active)
- EC50 [3]: > 112 µM (not active)
- EC50 [4]: > 112 µM (not active)
- IC50 [5]: 20.3 µM (not active)
- IC50 (H9c2): 35.8 µM (inactive)
- IC50 [6]: 7.48 µM (active)

SMILES: Oc1cc(CSc2nnnn2-c2ccccc2)nc(Nc2ccc(F)cc2)n1
- IC50 [1]: 38.2 µM (active)

SMILES: Cn1c(O)cc(=O)nc1SCC(=O)Nc1cccc2ccccc12
- EC50 [7]: > 150 µM (not active)
- IC50 (Leucine aminopeptidase): 7.59 µM (active)
- IC50 (Procathepsin L): > 59.6 µM (not active)
- IC50 (Aspartyl aminopeptidase): > 73.5 µM (not active)
- EC50 (Streptococcus): 24.8 µM (active)
- EC50 (Streptokinase A): > 150 µM (not active)

SMILES: O=c1c2ccccc2[nH]c(=S)n1CCN1CCC(=C(c2ccc(F)cc2)c2ccc(F)cc2)CC1 [DIACYLGLYCEROL KINASE INHIBITOR II]
- EC50 [8]: 3.94 µM (active)
- EC50 [9]: 4.21 µM (active)
